This is an account of results in patent US20180057888A1, “KUB5/HERA AS A DETERMINANT OF SENSITIVITY TO DNA DAMAGE” (priority 2015, published 2018).

Data set [1] deals with HTB24 breast cancer cell line. In words: cells. It counts as cell-based. To be noted: read-out: AG014699 Mean LC50 (SEM). How it is done: (§1) Colony Formation Assay (CFA).
(§2) Cells were seeded out in appropriate dilutions and treated with the vehicle (0.01% DMSO) or PARP inhibitors at various concentrations for 24 hr. After treatment, cells were then cultured in drug-free medium for several days (at least six rounds of replication), depending on the proliferation rate of each cell line. Colonies were fixed with formaldehyde (4%) and stained with crystal violet. Colonies containing more than 50 normal-appearing cells were counted using a microscope. Each drug concentration was assessed in triplicate, and the experiments were repeated three times.

Data set [2] concerns HTB122 breast cancer cell line. The experiment in a line: cells. It counts as cell-based. To be noted: read-out: AG014699 Mean LC50 (SEM). How it is done: as §1, §2
In data set [3] the test system is HCC202 breast cancer cell line. The experiment in a line: cells. It counts as cell-based. To be noted: HCC202, read-out: AG014699 Mean LC50 (SEM). How it is done:
as §1, §2

For data set [4], the system named is MCF-7 breast cancer cell line. In words: cells. It counts as cell-based. To be noted: Homo sapiens, MCF7, read-out: AG014699 Mean LC50 (SEM). How it is done:
as §1, §2

Data set [5] concerns HCC1569 breast cancer cell line. The experiment in a line: cells. It counts as cell-based. To be noted: Homo sapiens, HCC1569, read-out: AG014699 Mean LC50 (SEM). Here is the method: as §1, §2
The test system of data set [6] is shK-H 231 cells. In words: TUNEL assay of apoptotic cell death. The class given is cell-based. To be noted: Rucaparib 5 and 10 μM, 24 hr. Here is the method: TUNEL Assay. To measure apoptotic cell death, log phase 231 shSCR or shK-H cells were treated with the vehicle (0.01% DMSO) or Rucaparib (5 and 10 μM) for 24 hr, and incubated in drug-free media for additional 72 hr in the cell incubator. The cells were then harvested and fixed in 70% ethanol overnight at −20° C. Equal amount of cells from each treatment were then subjected to terminal deoxynucleotidyltransferase dUTP nick end labeling (TUNEL) following the standard protocols from APO-Direct TUNEL Assay kit (BD Biosciences), which include positive and negative controls. Flow cytometry experiments were immediately performed using the BD LSRFortessa II cell analyzer, and data were analyzed using the BD FACSDiva software (www.bdbiosciences.com). All experiments were performed in triplicate.

For data set [7], the system named is MDA-MB-231 shSCR cells. In words: Colony formation assay (clonogenic survival), MDA-MB-231 shSCR. It counts as cell-based. How it is done:
as §1, §2

The subject of data set [8] is HCC1937 cells. In words: Sulforhodamine B viability assay in HCC1937 cells. It counts as cell-based. To be noted: Rucaparib 30 μM, 24 hr. The text has this: FIGS. 8A-H. Pharmacological and genetic ablation of PARP1 activity is synthetic lethal with aberrant K-H reduction in BRCA-proficient breast cancers. (FIG. 8A) Western blot analysis of the parental BRCA-proficient 231 TNBC compared with 231 cells engineered to generate stable short hairpin RNA targeting non-specific gene control (shSCR), Kub5-Hera (shK-H) or PARP1 (shPARP1). (FIG. 8B) Chemical structures of PARP inhibitors used in this study. Left, AG014361; Right, AG014699 or Rucaparib. (C) Colony formation of specified cell lines treated with varying concentrations (0, 1, 2.5, 5, 10, 25 μM) of PARP inhibitor, AG014361, for 24 hr. Survival is expressed as mean percentage of colonies formed relative to vehicle-treated (0.01% DMSO) cells; error bars represent ±s.e.m. from three replicates. (FIG. 8D) Total cellular proteins from indicated 231 cells treated with vehicle (0.01% DMSO), AG014699/Rucaparib (5 μM), or staurosporine (STS, 2 μM) were subjected to Western blot analysis with indicated antibodies. (FIG. 8E) Western blot analysis of HCC1937 cell lines stably transfected with empty vector (lane 1), BRCA1 cDNA (lane 2), BRCA1 cDNA+ transient siSCR (lane 3), or BRCA1 cDNA+ transient siK-H (lane 4). […] Colorimetric intensity values were obtained using a plate reader, and normalized to control (0.01% DMSO). […]

Data set [9] addresses PARP1 (Homo sapiens, UniProt P09874). In words: PARP activity assay (PAR formation, immunoblot of total protein lysates). It counts as biochemical. To be noted: lysates of parental, shK-H, shPARP1, shSCR 231 cells. (In general: A western blot detects proteins with antibodies after separation by electrophoresis.)
Protocol: PARP Activity Assay. PARP activity was measured using immunoblot assay, which measured the amount of poly(ADP)-ribonucleotide (PAR) products synthesized using total protein lysates for PARP enzymatic activity in vitro. Briefly, the reaction containing total protein lysate (90 μg), and excess blunt-ended double-strand DNA oligonucleotide (26-mer) with internal synthetic abasic site (50 uM) in a reaction buffer containing Tris-HCl (10 mM, pH=7.4) and Mg^2+ (12 mM) was initiated by addition of excess β-NAD^+ (10 mM). The reaction was then stopped at various time-points by the addition of ice-cold concentrated AG014699/Rucaparib (250 μM), a known PARP1 inhibitor. Aliquots from each time points of the reaction were blotted onto a nitrocellulose membrane (BioRad dot blotter), and processed using standard Western blot assays. The density of each dots were quantified by ImageJ and plotted by GraphPad PRISM after normalization to controls (no NAD^+ addition).
Data set [10] relates to MDA-MB-231 shK-H cells. The experiment in a line: Colony formation assay (clonogenic survival), MDA-MB-231 shK-H. The class given is cell-based. To be noted: for CC50: Homo sapiens; for sensitivity of shK-H cells in colony forming assays: shK-H cells compared to parental or shSCR 231 cells, 24 hr treatment. How it is done:
as §1, §2

The test system of data set [11] is 231 cells. In words: Western blot analysis of pS1497-BRCA1 and CDK1 in 231 cells. The class given is cell-based. To be noted: 24 hr; for CDK1 protein level: Rucaparib 5 μM and/or RO3066 0.5 and 1 μM. Here is the method:
FIGS. 9A-H. Loss of K-H compromises CDK1 expression/activity and reduces HR-mediated DSB repair. (FIG. 9[…]1 cells transiently transfected with indicated concentrations of siK-H for 48 hr. Total cellular proteins from each treatments were subjected to Western blot analysis using indicated antibodies. (FIG. 9B) Western blot analysis of CDK1 protein levels in 231 […] treated with siK-H (15 nM) and harvested at various times (24, 48, 72 hr). (FIG. 9C) Western blot analysis of CDK1 protein levels in 231 cells treated with siRNA to nonspecific gene control (siSCR) or specific genes as indicated (15 nM). Specific siRNA oligonucleotide sequences used in this study are listed in Table S3. […] (FIG. 9E) 231 cells treated with ionizing radiation (IR, 2 Gy) and harvested after 1 hr. […] Bottom, Endogenous phospho-[…] BRCA1 is higher in shSCR compared to shK-H. After IR treatment, […] BRCA1 phosphorylation is impaired in 231 shK-H but not in shSCR. (FIG. 9F) 231 cells treated with PARP1i Rucaparib (5 μM, 24 hr), CDK1 inhibitor RO3066 (0.5 and 1 μM, 24 hr) or combination [Rucaparib+RO3066]. Cells were harvested after 24 hr treatment. […] BRCA1 was activated ([…]-BRCA1) after Rucaparib treatment alone (lane 2) but not in combination with CDK1 inhibitor, RO3066 (lanes 5 and 6). […] (FIG. 90) Comparison of 231 […]) treated with Rucaparib (5 μM, 24 hr), CDK1 inhibitor RO3066 (1 μM, 24 hr) or combination [Rucaparib+RO3066]. Cells were harvested after 24 hr treatment. […] Endogenous […]-BRCA1 was higher in vehicle-treated shSCR (lane 1) compared to shK-H (lane 6). […] (FIG. 9H) Homologous recombination assay in MCF-7 cells using DR-GFP reporter system. Columns represent mean percentage of GFP-positive cells normalized to control (siSCR); error bars represent ±s.e.m. from duplicate experiments, *p<0.05, **p<0.01. See Table S3 for siRNA sequences. siK-H used was to 3'-UTR. Western Blot Analysis. Whole-cell lysates and nuclear extracts were prepared as previously described (Morales et al., 2014). See Supplementary Table S2 for a list of specific antibodies and dilutions used. Protein concentrations were determined by BCA Assay following manufacturer's instructions (Thermo Scientific). Normalized protein samples were separated on denaturing gradient gels (4-20% from BioRad) and were transferred to PVDF membranes for immunoblotting. After transfer, the membranes were first blocked with 1× Sigma Blocking Buffer for an hour at room temperature. The membranes were then incubated with the indicated primary antibodies diluted in 1× Sigma Blocking Buffer at 4° C. overnight. After this step, the membranes were washed with PBST (3×, 10 minutes each). HRP-conjugated secondary antibodies were diluted in 1× Sigma Blocking Buffer and incubated with the membranes at room temperature for 1 hr. […]

Data set [12] deals with MDA-MB-231 shPARP1 cells. The experiment in a line: Colony formation assay (clonogenic survival), MDA-MB-231 shPARP1. It counts as cell-based. Here is the method: as §1, §2
The subject of data set [13] is MDA-MB-231 breast cancer cell line. In words: Colony formation assay (clonogenic survival), parental MDA-MB-231. It counts as cell-based. Here is the method:
as §1, §2

Data set [14] deals with shSCR 231 cells. In words: Immunofluorescence of γ-H2AX and 53BP1 foci (DSB markers), shSCR cells. It counts as cell-based. To be noted: shSCR 231 cells with wild-type K-H; Rucaparib 5 μM, 24 hr. How it is done:
(§3) MDA-MB-231 shSCR or shK-H cells were plated in a six-well plate (˜200,000 each well containing a glass slide) overnight. The next day, cells were treated with DMSO (0.01%) or Rucaparib/AG014699 (5 μM) for 24 hr. After treatment, the media was gently replaced with drug-free media and harvested at various times (0, 1, 6, 24 hr). The slides were gently washed with phosphate-buffered solution (pH=7.4), and fixed with ice cold methanol:acetone solution (3:1) for 10 min at −20° C. The cells were then washed and rehydrated with PBS at room temperature (3×, 5 min intervals). Next, the cells were incubated in blocking solution (5% normal goat serum in PBS) for 60 min at RT. After blocking, the cells were then incubated in primary antibody (diluted in 5% normal goat serum in PBS) overnight at 4° C. The next day, the cells were washed three times with wash buffer (1% BSA in PBS; 5 min. interval between washes). […]
(§4) To elucidate the mechanism by which K-H depletion sensitizes cells to PARP inhibition, the inventors treated shSCR vs shK-H 231 cells with vehicle (0.01% DMSO) or Rucaparib (5 μM) for 24 hr and quantified DSB formation at various times post-treatment using γ-H2AX and/or 53BP1 as surrogate DSB markers (Lobrich et al., 2010; Anderson et al., 2001 and Bekker-Jensen et al., 2005) (representative images, FIG. 2A).

For data set [15], the system named is shK-H 231 cells. In words: Immunofluorescence of γ-H2AX and 53BP1 foci (DSB markers), shK-H cells. It counts as cell-based. To be noted: shK-H-depleted 231 cells, Rucaparib 5 μM, 24 hr. Here is the method: as §3, §4
Where [16] appears, read: Homo sapiens, MDA-MB-231, read-out: AG014699 Mean LC50 (SEM).
Where [17] appears, read: Homo sapiens, MDA-MB-231, read-out: LC50 values.

Read-outs that look alike come from different tables or passages of the source.

PARP1, sequence (P09874 whole entry): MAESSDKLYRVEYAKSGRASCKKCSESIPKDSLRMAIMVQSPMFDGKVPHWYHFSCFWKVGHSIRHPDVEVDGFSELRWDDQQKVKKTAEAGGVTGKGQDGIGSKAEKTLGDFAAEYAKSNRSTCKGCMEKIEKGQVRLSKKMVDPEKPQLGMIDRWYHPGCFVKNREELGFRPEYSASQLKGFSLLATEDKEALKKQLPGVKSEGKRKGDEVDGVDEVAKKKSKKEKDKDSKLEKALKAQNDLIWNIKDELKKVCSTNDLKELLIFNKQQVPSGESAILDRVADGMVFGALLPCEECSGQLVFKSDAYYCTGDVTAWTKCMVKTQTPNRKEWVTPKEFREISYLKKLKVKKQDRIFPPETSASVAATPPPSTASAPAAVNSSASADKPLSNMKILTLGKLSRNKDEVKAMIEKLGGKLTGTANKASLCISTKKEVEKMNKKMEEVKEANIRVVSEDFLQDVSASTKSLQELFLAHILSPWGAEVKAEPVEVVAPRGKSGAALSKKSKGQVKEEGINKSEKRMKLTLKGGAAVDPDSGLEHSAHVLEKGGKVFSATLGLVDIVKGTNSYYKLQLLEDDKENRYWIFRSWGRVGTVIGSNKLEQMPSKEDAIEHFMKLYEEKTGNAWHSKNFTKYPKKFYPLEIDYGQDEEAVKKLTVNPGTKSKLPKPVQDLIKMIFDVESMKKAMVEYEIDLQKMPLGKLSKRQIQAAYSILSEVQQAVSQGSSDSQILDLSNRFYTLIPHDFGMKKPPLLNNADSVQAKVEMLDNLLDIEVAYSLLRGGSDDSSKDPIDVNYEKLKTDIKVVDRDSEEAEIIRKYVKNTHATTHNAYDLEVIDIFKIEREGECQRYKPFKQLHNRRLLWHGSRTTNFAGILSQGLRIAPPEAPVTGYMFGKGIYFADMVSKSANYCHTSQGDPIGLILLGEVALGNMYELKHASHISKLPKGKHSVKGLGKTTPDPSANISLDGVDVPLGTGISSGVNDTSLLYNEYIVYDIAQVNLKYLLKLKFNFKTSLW

Consider `CNCc1ccc(-c2[nH]c3cc(F)cc4c3c2CCNC4=O)cc1` [AG014699, Rucaparib], for which the CC50 in data set [1] is 1.5 µM; in data set [2], 3.9 µM; in [3] it was 6.7 µM; in data set [4] it was 11 µM; in [5], 18 µM; in [7] (setting [16]) it was 18 µM. Besides, the CC50 in data set [7] (setting [17]) was about 20 µM; in data set [10] (MDA-MB-231, read-out: AG014699 Mean LC50 (SEM)) it was 0.7 µM; in data set [10] (MDA-MB-231, read-out: lethality (LC50) in shK-H 231 cells), 0.66 µM; in data set [12] (setting [16]), 17 µM; in data set [12] (setting [17]) it was about 20 µM; in data set [13] (setting [16]), 20 µM. Further, the CC50 in data set [13] (setting [17]) is about 20 µM. The “apoptosis (% TUNEL+)” value in [6] is given as “dose-dependent increase in apoptosis”. Besides, the “lethality after siK-H depletion of BRCA1-corrected cells” value in data set [8] (BRCA1-corrected HCC1937 + siK-H) is “induced lethality”. The “lethality after reconstitution with BRCA1 cDNA” value in data set [8] (BRCA-deficient HCC1937 + BRCA1 cDNA) is given as “abolished”. Moreover, the “Relative PARP enzymatic activity [PAR formation/Time (sec)]” value in data set [9] is listed as “inhibited”. The “fold greater lethality than similar AG014361 exposures” value in data set [10] (shK-H 231 cells, Rucaparib vs AG014361) is reported as about 6 fold. The CDK1 protein level entry in [11] (231 cells) is reported as “no further reduction of CDK1”. For the same compound, in [11] (231 cells, Rucaparib alone 5 μM), the “BRCA1 activation (pS1497-BRCA1)” value was “activated”. In [14], the “levels of DSBs after exposure” value is on record as “significantly lower levels of DSBs”. For the same compound, the “levels of co-localized γ-H2AX and 53BP1 foci (persistent DSBs)” value in data set [15] is “dramatically increased”. In [15] (over time post-treatment), the “DSB levels (53BP1 foci formation)” value is “Dramatic increase in DSB levels”.
Regarding `O=C1NC(=NCc2cccs2)S/C1=C\c1ccc2ncccc2c1` [RO3066], the CDK1 protein level result in [11] (231 cells) is recorded as “no further reduction of CDK1”. Moreover, the “pS1497-BRCA1 activation in combination with Rucaparib” value in [11] (231 shSCR cells, Rucaparib 5 μM + RO3066 1 μM) was “inhibited”.
For the compound `CN(C)Cc1ccc(-c2nc3cccc4c3n2CCNC4=O)cc1` [AG014361], the CC50 was about 20 µM in data set [7] (shSCR 231 cells, similar treatment conditions, read-out: LC50 values); about 20 µM in data set [12] (shPARP1 231 cells, similar treatment conditions, read-out: LC50 values); about 20 µM in data set [13] (parental 231 cells, similar treatment conditions, read-out: LC50 values). Further, the “sensitivity of shK-H cells in colony forming assays” value in data set [10] was “more sensitive”. The “additional lethality in PARP1-deficient cells” value in data set [12] (shPARP1 231 cells, dose-response curve coinciding with parental or shSCR cells) is reported as “did not induce additional lethality”.
Take `Cn1ncnc1[C@H]1c2n[nH]c(=O)c3cc(F)cc(c23)N[C@@H]1c1ccc(F)cc1` [Talazoparib]: the “sensitivity of shK-H cells in colony forming assays” value in [10] is recorded as “more sensitive”.
